According to PubChem BioAssay (NCI):
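1) Cells in 96-well plates. 2) Compound, 48 h, 5 concentrations. 3) Linear interpolation between surrounding doses. 4) Unreached endpoint = highest concentration. At the GI50, growth is halved. TGI denotes the concentration required for complete inhibition of growth.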

Columns and labels:
Assay in all cases: NCI tumour cell line growth inhibition, 48 h
MDA-MB-468 breast = tested on: MDA-MB-468 breast
NCI-H460 lung = tested on: NCI-H460 lung
SF-268 CNS = tested on: SF-268 CNS
MCF7 breast = tested on: MCF7 breast
K-562 leukemia = tested on: K-562 leukemia
HCC-2998 colon = tested on: HCC-2998 colon
ACHN renal = tested on: ACHN renal
M14 melanoma = tested on: M14 melanoma
MDA-MB-435 = tested on: MDA-MB-435
MDA-MB-231 breast = tested on: MDA-MB-231 breast
A498 renal = tested on: A498 renal
HOP-62 NSCLC = tested on: HOP-62 NSCLC
NCI-H522 lung = tested on: NCI-H522 lung
SNB-75 CNS = tested on: SNB-75 CNS
SF-295 CNS = tested on: SF-295 CNS
HT29 colon = tested on: HT29 colon
RXF 393 renal = tested on: RXF 393 renal
CAKI-1 renal = tested on: CAKI-1 renal
SF-539 CNS = tested on: SF-539 CNS
786-0 renal = tested on: 786-0 renal
UACC-62 melanoma = tested on: UACC-62 melanoma
HS 578T breast = tested on: HS 578T breast
OVCAR-8 ovarian = tested on: OVCAR-8 ovarian
T-47D breast = tested on: T-47D breast
HCT-116 colon = tested on: HCT-116 colon
SR leukemia = tested on: SR leukemia
HCT-15 colon = tested on: HCT-15 colon
HOP-92 NSCLC = tested on: HOP-92 NSCLC
CCRF-CEM leukemia = tested on: CCRF-CEM leukemia
OVCAR-4 ovarian = tested on: OVCAR-4 ovarian
MALME-3M melanoma = tested on: MALME-3M melanoma
EKVX NSCLC = tested on: EKVX NSCLC
NCI-H226 lung = tested on: NCI-H226 lung
SK-MEL-28 melanoma = tested on: SK-MEL-28 melanoma
SNB-19 CNS = tested on: SNB-19 CNS
UACC-257 melanoma = tested on: UACC-257 melanoma
PC-3 prostate = tested on: PC-3 prostate
OVCAR-3 ovarian = tested on: OVCAR-3 ovarian
SW-620 colon = tested on: SW-620 colon
SN12C renal = tested on: SN12C renal
A549 NSCLC = tested on: A549 NSCLC
DU-145 prostate = tested on: DU-145 prostate
UO-31 renal = tested on: UO-31 renal
SK-OV-3 ovarian = tested on: SK-OV-3 ovarian
TK-10 renal = tested on: TK-10 renal
HL-60(TB) leukemia = tested on: HL-60(TB) leukemia
U251 CNS = tested on: U251 CNS
LOX IMVI melanoma = tested on: LOX IMVI melanoma
KM12 colon = tested on: KM12 colon
OVCAR-5 ovarian = tested on: OVCAR-5 ovarian
RPMI-8226 leukemia = tested on: RPMI-8226 leukemia
SK-MEL-5 melanoma = tested on: SK-MEL-5 melanoma
MOLT-4 leukemia = tested on: MOLT-4 leukemia
IGROV1 ovarian = tested on: IGROV1 ovarian
COLO 205 colon = tested on: COLO 205 colon
NCI-H23 lung = tested on: NCI-H23 lung
BT-549 breast = tested on: BT-549 breast

## O=C(Nc1ccc(-c2nc3ccc(NC(=O)c4ccc(Cl)cc4)cc3[nH]2)cc1)c1ccc(Cl)cc1
MDA-MB-468 breast
  GI50: 2580 nM
  TGI: 8450 nM

## Cc1ccc(Nc2ccnc(Nc3cccc(C(N)=O)c3)n2)cc1O
MDA-MB-468 breast
  GI50: 2620 nM
  TGI: 9560 nM

## COc1cc(SC)ccc1C(=O)N1CCCC(C)C1 (configuration not stated)
MDA-MB-468 breast
  GI50: 26100 nM
  TGI: > 100000 nM

## O=C(N/N=C\c1cc(Cl)ccc1O)N/N=C/c1cc(Cl)ccc1O
MDA-MB-468 breast
  GI50: 2580 nM
  TGI: > 100000 nM

## Fc1ccc(-c2c(-c3ccncc3)n(CCN3CCOCC3)c3cccnc23)cc1
MDA-MB-468 breast
  GI50: > 25000 nM
  TGI: > 25000 nM

## CN1C=CN(Cc2ccc(-c3ccccn3)nc2)[CH-]1.CN1C=CN(Cc2ccc(-c3ccccn3)nc2)[CH-]1.[Au+3]
MDA-MB-468 breast
  GI50: 337 nM
  TGI: 2530 nM

## Brc1ccc2[nH]cc(-c3nc(-c4c[nH]c5ccncc45)cs3)c2c1
MDA-MB-468 breast
  GI50: 1770 nM
  TGI: 3450 nM

## C=C(C)[C@@H]1CC[C@]2(C#N)CC[C@]3(C)[C@H](CC[C@@H]4[C@@]5(C)CCCNC(C)(C)[C@@H]5CC[C@]43C)[C@@H]12
MDA-MB-468 breast
  GI50: 1750 nM
  TGI: 3210 nM

## CC(C)=CCC[C@](C)(O)[C@H]1CC[C@]2(C)[C@@H]1CC[C@@H]1[C@@]3(C)CC[C@H](OC(=O)CCC(=O)O)C(C)(C)[C@@H]3CC[C@]12C
MDA-MB-468 breast
  GI50: 22300 nM
  TGI: 96100 nM

## CCN(CC)c1ccc(/C=N\NC(=O)c2cccc(Nc3ccnc(C(F)(F)F)c3)c2)c(O)c1
MDA-MB-468 breast
  GI50: 239 nM
  TGI: 3510 nM

## NC(=NC1C2CC3CC(C2)CC1C3)Nc1ccc(I)cc1 (configuration not stated)
MDA-MB-468 breast
  GI50: 1960 nM
  TGI: 4680 nM

## O=C(O)c1c(Cl)c(Cl)c(Cl)c(Cl)c1-c1c2cc(I)c(=O)c(I)c-2oc2c(I)c(O)c(I)cc12
MDA-MB-468 breast
  GI50: 36900 nM
  TGI: 76200 nM

## Cn1cc(/C=C2\C(=O)Nc3cccnc32)c2ccccc21
MDA-MB-468 breast
  GI50: 12000 nM
  TGI: > 25000 nM

## COc1cc(C(=O)c2c(-c3ccccc3)oc3ccccc23)cc(OC)c1O
MDA-MB-468 breast
  GI50: 362 nM
  TGI: 3480 nM

## CCOc1ccc(N2C(N)=NC(N)=NC2(C)C)cc1
MDA-MB-468 breast
  GI50: 20800 nM
  TGI: > 100000 nM

## N#CC(C#N)=C/C=C/c1cccc([N+](=O)[O-])c1
MDA-MB-468 breast
  GI50: 767 nM
  TGI: 2280 nM

## Cc1cc(C#Cc2ccccc2)ccc1-n1c(/C=C/c2ccc(O)cc2)nc2ccccc2c1=O
MDA-MB-468 breast
  GI50: 3780 nM
  TGI: > 100000 nM

## COc1cc(Nc2ncc(-c3ccccc3)o2)cc(OC)c1OC
MDA-MB-468 breast
  GI50: 74.4 nM
  TGI: 1100 nM

## O=C(/C=C/c1cccs1)Nc1ncc(Cc2ccccc2F)s1
MDA-MB-468 breast
  GI50: 364 nM
  TGI: > 100000 nM

## Cc1cc(N=C(N)c2ccccc2)ccc1OCCCCCCCCn1ccnc1
NCI-H460 lung
  GI50: 388 nM
  TGI: 11600 nM
SF-268 CNS
  GI50: 1220 nM
  TGI: 16600 nM
MCF7 breast
  GI50: 312 nM
  TGI: 10700 nM
K-562 leukemia
  GI50: 283 nM
  TGI: 11200 nM
MDA-MB-468 breast
  GI50: 155 nM
  TGI: 694 nM
HCC-2998 colon
  GI50: 224 nM
  TGI: 1760 nM
ACHN renal
  GI50: 547 nM
  TGI: 13200 nM
M14 melanoma
  GI50: 323 nM
  TGI: 1310 nM
MDA-MB-435
  GI50: 225 nM
  TGI: 573 nM
MDA-MB-231 breast
  GI50: 540 nM
  TGI: 4610 nM
A498 renal
  GI50: 8120 nM
  TGI: 23700 nM
HOP-62 NSCLC
  GI50: 441 nM
  TGI: 15200 nM
NCI-H522 lung
  GI50: 245 nM
  TGI: 986 nM
SNB-75 CNS
  GI50: 418 nM
  TGI: 7300 nM
SF-295 CNS
  GI50: 259 nM
  TGI: 929 nM
HT29 colon
  GI50: 239 nM
  TGI: 667 nM
RXF 393 renal
  GI50: 231 nM
  TGI: 1570 nM
CAKI-1 renal
  GI50: 580 nM
  TGI: 12000 nM
SF-539 CNS
  GI50: 227 nM
  TGI: 567 nM
786-0 renal
  GI50: 483 nM
  TGI: 4580 nM
UACC-62 melanoma
  GI50: 494 nM
  TGI: 7580 nM
HS 578T breast
  GI50: 991 nM
  TGI: 12100 nM
OVCAR-8 ovarian
  GI50: 471 nM
  TGI: 2950 nM
T-47D breast
  GI50: 594 nM
  TGI: 21500 nM
HCT-116 colon
  GI50: 375 nM
  TGI: 11400 nM
SR leukemia
  GI50: 327 nM
  TGI: 19400 nM
HCT-15 colon
  GI50: 361 nM
  TGI: 11500 nM
HOP-92 NSCLC
  GI50: 589 nM
  TGI: 7870 nM
CCRF-CEM leukemia
  GI50: 371 nM
  TGI: 12400 nM
OVCAR-4 ovarian
  GI50: 2890 nM
  TGI: 35300 nM
MALME-3M melanoma
  GI50: 323 nM
  TGI: 1590 nM
EKVX NSCLC
  GI50: 422 nM
  TGI: 13300 nM
NCI-H226 lung
  GI50: 332 nM
  TGI: 1790 nM
SK-MEL-28 melanoma
  GI50: 1010 nM
  TGI: 8680 nM
SNB-19 CNS
  GI50: 753 nM
  TGI: 17700 nM
UACC-257 melanoma
  GI50: 1470 nM
  TGI: 13000 nM
PC-3 prostate
  GI50: 460 nM
  TGI: 16500 nM
OVCAR-3 ovarian
  GI50: 366 nM
  TGI: 13100 nM
SW-620 colon
  GI50: 463 nM
  TGI: 20900 nM
SN12C renal
  GI50: 440 nM
  TGI: 7870 nM
A549 NSCLC
  GI50: 803 nM
  TGI: 14900 nM
DU-145 prostate
  GI50: 407 nM
  TGI: 14300 nM
UO-31 renal
  GI50: 680 nM
  TGI: 8270 nM
SK-OV-3 ovarian
  GI50: 512 nM
  TGI: 14900 nM
TK-10 renal
  GI50: 1460 nM
  TGI: 17200 nM
HL-60(TB) leukemia
  GI50: 211 nM
  TGI: 659 nM
U251 CNS
  GI50: 355 nM
  TGI: 3100 nM
LOX IMVI melanoma
  GI50: 327 nM
  TGI: 1860 nM
KM12 colon
  GI50: 444 nM
  TGI: 13600 nM
OVCAR-5 ovarian
  GI50: 456 nM
  TGI: 11500 nM
RPMI-8226 leukemia
  GI50: 352 nM
  TGI: 1630 nM
SK-MEL-5 melanoma
  GI50: 325 nM
  TGI: 1170 nM
MOLT-4 leukemia
  GI50: 565 nM
  TGI: 17700 nM
IGROV1 ovarian
  GI50: 634 nM
  TGI: 12400 nM
COLO 205 colon
  GI50: 354 nM
  TGI: 1450 nM
NCI-H23 lung
  GI50: 262 nM
  TGI: 4060 nM
BT-549 breast
  GI50: 1450 nM
  TGI: 11100 nM

## Fc1cc(Nc2ccc3c(OCCCN4CCOCC4)cccc3n2)ccc1Cl
MDA-MB-468 breast
  GI50: 2080 nM
  TGI: 4430 nM

## COc1ccccc1OCC(O)CO (configuration not stated)
MDA-MB-468 breast
  GI50: > 100000 nM
  TGI: > 100000 nM

## O=c1c2c(=NCCCN3CCCC3)cc3c(=O)n(CCCN4CCCC4)c(=O)c4c(NCCCN5CCCC5)cc(c(O)n1CCCN1CCCC1)c2c4-3
MDA-MB-468 breast
  GI50: 1740 nM
  TGI: 4680 nM

## NC(=O)c1ccc(-c2c3ccccc3cc3c2ccc2ccccc23)cc1
MDA-MB-468 breast
  GI50: 1340 nM
  TGI: 6970 nM

## CCc1ccc(/C=C2/SC(=S)NC2=O)cc1
MDA-MB-468 breast
  GI50: 20300 nM
  TGI: 69400 nM

## O=C(O)CCN1C(=O)/C(=C/C(Cl)=C/c2ccccc2)SC1=S
MDA-MB-468 breast
  GI50: 1200 nM
  TGI: 2980 nM

## CCNC1=CC(=O)c2ncccc2C1=O
MDA-MB-468 breast
  GI50: 2110 nM
  TGI: 7550 nM

## CCn1cc(C2NC(=O)c3cc(F)ccc3N2)c2cccc(Cl)c21 (configuration not stated)
MDA-MB-468 breast
  GI50: 292 nM
  TGI: 6130 nM

## COc1cc([N+](=O)[O-])c2ncccc2c1O
MDA-MB-468 breast
  GI50: 35600 nM
  TGI: > 100000 nM

## COCCn1cc(-c2csc(-c3c[nH]c4ccc(F)cc34)n2)c2cccnc21
MDA-MB-468 breast
  GI50: 2440 nM
  TGI: 8510 nM
